{
  "source": "patent US7638600B2",
  "about": "(priority 2004, dated 2009)",
  "key": {"spores": {"tested_on": "spores", "assay_type": "cell-based"}, "RSVF1": {"tested_on": "RSVF1", "assay": "microbe, parasite or virus in culture", "assay_type": "cell-based, B. cereus", "settings": "Bacillus cereus, read-out: MIC for fosfomycin"}, "RSVF1/pDG148::gp41": {"tested_on": "RSVF1/pDG148::gp41", "assay": "microbe, parasite or virus in culture", "assay_type": "cell-based, B. cereus"}, "RSVF1/pDG148": {"tested_on": "RSVF1/pDG148", "assay": "microbe, parasite or virus in culture", "assay_type": "cell-based, B. cereus", "settings": "Bacillus cereus, read-out: MIC for fosfomycin"}},
  "data": [
    {"smiles": "C[C@@H](N)C(=O)O", "note": "[D-alanine]", "values": [
      {"measurement": "germination frequency", "setting": "spores", "result": "< 10", "unit": "%"}
    ]},
    {"smiles": "C[C@H](N)C(=O)O", "note": "[L-alanine]", "values": [
      {"measurement": "spores converted to heat sensitive forms", "setting": "spores", "result": "> 99", "unit": "%"}
    ]},
    {"smiles": "C[C@@H]1O[C@@H]1P(=O)(O)O", "note": "[fosfomycin]", "values": [
      {"measurement": "MIC", "setting": "RSVF1", "result": 62.5, "unit": "µg/mL"},
      {"measurement": "increase in resistance to the antibiotic fosfomycin", "setting": "RSVF1/pDG148::gp41", "result": 4, "unit": "log"},
      {"measurement": "MIC", "setting": "RSVF1/pDG148::gp41; Bacillus cereus, read-out: MIC for fosfomycin", "result": 500, "unit": "µg/mL"},
      {"measurement": "MIC", "setting": "RSVF1/pDG148", "result": 62.5, "unit": "µg/mL"}
    ]}
  ]
}
